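Protocol summary: plate cells (96-well), add compound at 5 concentrations, incubate 48 h, interpolate endpoints linearly. At the GI50, growth is halved. TGI: total growth inhibition.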
Experiments:
Experiment in all cases: NCI anticancer screen, dose series, 48 h
[1] = tested on: UACC-62 melanoma
[2] = tested on: HCC-2998 colon
[3] = tested on: SW-620 colon
[4] = tested on: EKVX NSCLC
[5] = tested on: A498 renal
[6] = tested on: SF-539 CNS
[7] = tested on: SNB-75 CNS
[8] = tested on: PC-3 prostate
[9] = tested on: SK-MEL-2 melanoma
[10] = tested on: OVCAR-8 ovarian

| Structure (SMILES) | GI50 [1] | TGI [1] | GI50 [2] | TGI [2] | GI50 [3] | TGI [3] | GI50 [4] | TGI [4] | GI50 [5] | TGI [5] | GI50 [6] | TGI [6] | GI50 [7] | TGI [7] | GI50 [8] | TGI [8] | GI50 [9] | TGI [9] | GI50 [10] | TGI [10] |
| --- | --- | --- | --- | --- | --- | --- | --- | --- | --- | --- | --- | --- | --- | --- | --- | --- | --- | --- | --- | --- |
| COC(=O)C(C)NP(=O)(OCc1cccc(Cn2cnc3c(N)ncnc32)c1)Oc1ccccc1 (stereo not given) | 56.3 µM | > 100 µM | 10.9 µM | 53.7 µM | > 100 µM | > 100 µM | > 100 µM | > 100 µM | > 100 µM | > 100 µM | > 100 µM | > 100 µM | > 100 µM | > 100 µM | > 100 µM | > 100 µM | > 100 µM | > 100 µM | > 100 µM | > 100 µM |
| CC1(c2ccc(Cl)cc2)C=C(c2ccc(Cl)cc2)C(C#N)=C(C(C#N)C#N)N1 (stereo not given) |  | 28.2 µM |  | 31.3 µM |  | > 100 µM |  | 31.3 µM |  | 33.7 µM |  | 43.9 µM |  | 33.6 µM |  | 31.5 µM |  | 47.1 µM |  | 30.7 µM |
| Nc1nccc(NCC2(CO)CC(CCc3ccccc3)C2)n1 (stereo not given) |  | 28.5 µM |  | 35.9 µM |  | 43.7 µM |  | 46.9 µM |  | 29.3 µM |  | 32.1 µM |  | 40.5 µM |  | 31.9 µM |  | 32.8 µM |  | 69.4 µM |
| NS(=O)(=O)c1c(O)c2ccccc2oc1=O |  | > 100 µM |  | > 100 µM |  | > 100 µM |  | > 100 µM |  | > 100 µM |  | > 100 µM |  | > 100 µM |  | > 100 µM |  | > 100 µM |  | > 100 µM |
| COc1cc(S(=O)(=O)Nc2nc(-c3ccc(N=Cc4ccccc4O)cc3)cs2)ccc1Cl |  | 75.9 µM |  | > 100 µM |  | > 100 µM |  | 86.8 µM |  | > 100 µM |  | > 100 µM |  | > 100 µM |  | > 100 µM |  | > 100 µM |  | > 100 µM |
| C(=NC12CC3CC(CC(C3)C1)C2)C1CCCCC1 |  | > 100 µM |  | > 100 µM |  | > 100 µM |  | > 100 µM |  | > 100 µM |  | > 100 µM |  | > 100 µM |  | > 100 µM |  | > 100 µM |  | > 100 µM |
| CO/C(N)=C(\C#N)N=Cc1ccsc1 |  | > 100 µM |  | > 100 µM |  | > 100 µM |  | > 100 µM |  | > 100 µM |  | > 100 µM |  | > 100 µM |  | > 100 µM |  | > 100 µM |  | > 100 µM |
| CCCCCC(=O)OC[n+]1cccc(-c2c(COC(=O)NC(C)C)c(COC(=O)NC(C)C)c3n2CCC3)c1 |  | 89.2 µM |  | > 100 µM |  | > 100 µM |  | > 100 µM |  | 37.7 µM |  | > 72.5 µM |  | > 100 µM |  | > 100 µM |  | 94.7 µM |  | > 100 µM |
| COC(=O)C(=O)C(C(=O)C(=O)Nc1cccc(OC)c1)c1nc2ccc(Cl)cc2[nH]c1=O (stereo not given) |  | > 100 µM |  | > 100 µM |  | > 100 µM |  | > 100 µM |  | > 100 µM |  | > 100 µM |  | > 100 µM |  | > 100 µM |  | > 100 µM |  | > 100 µM |
| COC(=O)c1sc(=S)sc1SCc1cccc(CSc2sc(=S)sc2C(=O)OC)c1 |  | > 100 µM |  | > 100 µM |  | > 100 µM |  | > 100 µM |  | 62.2 µM |  | 62.6 µM |  | 26.6 µM |  | > 100 µM |  | > 100 µM |  | > 100 µM |
| Fc1ccc2c(c1)SC1=Nc3sc4cc(F)ccc4[n+]3CN12 |  | 33.1 µM |  | 47.5 µM |  | > 100 µM |  | 79 µM |  | 33.5 µM |  | 28.3 µM |  | 36.8 µM |  | > 100 µM |  | 55 µM |  | 38 µM |
| c1ccc(C(NC2=NCCO2)C2CC2)cc1 (stereo not given) |  | > 100 µM |  | > 100 µM |  | > 100 µM |  | > 100 µM |  | > 100 µM |  | > 100 µM |  | > 100 µM |  | > 100 µM |  | > 100 µM |  | > 100 µM |
| C#CCN(C(=O)C(F)(F)F)C(/C=C\C(=O)OC)(C(=O)OCC)C(=O)OCC |  | > 100 µM |  | > 100 µM |  | > 100 µM |  | > 100 µM |  | > 100 µM |  | > 100 µM |  | > 100 µM |  | > 100 µM |  | > 100 µM |  | > 100 µM |
| S=c1[nH]nc(Cn2c3ccc(Br)cc3c3nc4ccccc4nc32)o1 |  | > 82.6 µM |  | > 100 µM |  | > 31.6 µM |  | > 100 µM |  | > 100 µM |  | > 80.7 µM |  | > 100 µM |  | > 93.2 µM |  | > 88.6 µM |  | > 100 µM |
| O=C(Nc1ccc(Cl)cc1Cl)C1C(=O)OC2(CCCCC2)OC1=O |  | 24.4 µM |  | 29.3 µM |  | 25.3 µM |  | 32.3 µM |  | 31.5 µM |  | 23.6 µM |  | 29.2 µM |  | 17.4 µM |  | 12.6 µM |  | 39.6 µM |
| O=[N+]([O-])c1ccc(N/N=C\c2cc(Br)ccc2O)nc1 | 1.86 µM | 6.15 µM | 3.18 µM | > 100 µM | 0.934 µM | > 100 µM | 2.4 µM | 7.69 µM | 6.11 µM | > 100 µM | 0.918 µM | 4.16 µM | 1.32 µM | 3.85 µM | 1.67 µM | > 100 µM | 4.88 µM | > 100 µM | 0.415 µM | 8.86 µM |
